Values joined by “and” are separate entries in the source; they are usually repeats but may differ in a detail not shown here. Equal values may be shown once. Where a name gives a salt, the structure may show the parent alone. Read-outs that look alike come from different tables or passages of the source.
How the values were obtained:
[1] = tested on: C. albicans 3153; assay: agar dilution method, C. albicans 3153; type: cell-based, Candida albicans; conditions: for MIC: Candida albicans, 3153, 48 h, alone, 37° C., 2 days
[2] = tested on: C. albicans B5; assay: agar dilution method, C. albicans B5; type: cell-based, Candida albicans; conditions: for MIC: Candida albicans, B5, 48 h, alone, 37° C., 2 days
[3] = acute toxicity, single oral administration to mice; conditions: mouse, in vivo
Description: The IC50 values were determined graphically and were given in μg of test substance per mL. Table I hereinafter contains IC50 values determined in the above test for representative members of the class of compound defined by formula I as well as concerning the acute toxicity in the case of single oral administration to mice (LD50 in mg/kg).

[4] = tested on: C. albicans H12; assay: agar dilution method, C. albicans H12; type: cell-based, Candida albicans; conditions: for MIC: Candida albicans, H12, 48 h, alone, 37° C., 2 days
[5] = tested on: C. albicans H29; assay: agar dilution method, C. albicans H29; type: cell-based, Candida albicans; conditions: for MIC: Candida albicans, H29, 48 h, alone, 37° C., 2 days; for FIC: synergistic when FIC <0.5
[6] = tested on: C. albicans 3152; assay: agar dilution method, C. albicans 3152; type: cell-based, Candida albicans
[7] = biological target: T1, 2,3-epoxysqualene-lanosterol cyclase (Candida albicans, UniProt Q04782); assay: inhibition of 2,3-epoxysqualene-lanosterol cyclase from Candida albicans (cell-free extract, 14C-squalene epoxide); type: biochemical
T1 construct: there was obtained a cell-free extract (CFE) as the supernatant; endogenous in cells; host or cells: Candida albicans culture, protoplasts ruptured, cell-free extract (10000 g supernatant)
T1 sequence (Q04782 whole entry): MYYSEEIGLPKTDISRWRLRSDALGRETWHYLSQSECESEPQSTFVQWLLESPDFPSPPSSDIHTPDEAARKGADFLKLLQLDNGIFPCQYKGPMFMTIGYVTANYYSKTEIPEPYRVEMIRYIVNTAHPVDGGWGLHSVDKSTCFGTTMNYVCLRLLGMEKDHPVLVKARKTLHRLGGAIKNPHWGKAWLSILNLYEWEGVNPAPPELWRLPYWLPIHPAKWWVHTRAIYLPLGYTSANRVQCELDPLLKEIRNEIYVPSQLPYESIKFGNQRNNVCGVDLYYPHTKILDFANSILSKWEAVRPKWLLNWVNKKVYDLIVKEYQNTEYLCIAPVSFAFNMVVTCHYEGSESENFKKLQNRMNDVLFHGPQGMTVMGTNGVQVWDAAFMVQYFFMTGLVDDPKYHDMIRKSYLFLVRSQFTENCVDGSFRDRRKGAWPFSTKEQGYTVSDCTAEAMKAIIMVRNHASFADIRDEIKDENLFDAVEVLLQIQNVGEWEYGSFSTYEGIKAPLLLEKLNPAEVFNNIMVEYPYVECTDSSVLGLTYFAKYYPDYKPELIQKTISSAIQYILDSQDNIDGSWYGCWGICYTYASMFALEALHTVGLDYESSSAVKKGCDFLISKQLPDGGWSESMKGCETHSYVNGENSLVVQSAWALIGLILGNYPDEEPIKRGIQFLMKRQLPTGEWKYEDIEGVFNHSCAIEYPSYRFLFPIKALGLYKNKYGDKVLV

[8] = tested on: Candida albicans; assay: agar dilution method, synergism with sterol biosynthesis inhibitors; type: cell-based; conditions: in combination with ketoconazole or terbinafine; synergistic when FIC <0.5
[9] = tested on: C. albicans B4; assay: agar dilution method, C. albicans B4; type: cell-based, Candida albicans; conditions: for MIC: Candida albicans, B4, 48 h, alone, 37° C., 2 days
[10] = in combination with terbinafine
[11] = in combination with ketoconazole, hydrochloride
[12] = in combination with ketoconazole, synergistic when FIC <0.5, hydrochloride
[13] = in combination with terbinafine, synergistic when FIC <0.5
[14] = in combination with ketoconazole
[15] = in combination with ketoconazole, synergistic when FIC <0.5

Structure (SMILES): C=CCN(C)Cc1ccc(-c2ccc(C(=O)c3ccccc3)cc2)cc1 [Compound 14, 4'-[(allylmethylamino)methyl-4-biphenylylphenyl ketone hydrochloride]
- MIC [1]: 1 µg/mL
- MIC of compound in combination [1, 10]: 0.25 µg/mL
- FIC ([1]; in combination with terbinafine, synergistic when FIC <0.5, hydrochloride): 0.281 and 0.561
- MIC [2]: 1 µg/mL
- MIC of compound in combination [2, 11]: 0.06 µg/mL and 0.12 µg/mL
- FIC [2, 12]: 0.125 and 0.25
- MIC of compound in combination [2, 10]: 0.25 µg/mL
- FIC [2, 13]: 0.375
- LD50 [3]: > 4000 mg/kg
- MIC [4]: 1 µg/mL
- MIC of compound in combination [4, 11]: 0.12 µg/mL and 0.06 µg/mL
- FIC [4, 12]: 0.133 and 0.125
- MIC of compound in combination [4, 10]: 0.5 µg/mL
- FIC [4, 13]: 0.516
- MIC [5]: 1 µg/mL
- MIC of compound in combination [5, 11]: 0.06 µg/mL and 0.12 µg/mL
- MIC of compound in combination [5, 10]: 0.25 µg/mL
- FIC [5, 10]: 0.375
- MIC ([6]; Candida albicans, 48 h, alone, 37° C., 2 days): 1 µg/mL
- MIC of compound in combination [6, 11]: 0.06 µg/mL and 0.12 µg/mL
- FIC [6, 12]: 0.187 and 0.156
- IC50 [7]: 0.0527 µM
- synergistic activity [8]: confirm the synergistic activity
- MIC [9]: 2 µg/mL
- MIC of compound in combination [9, 11]: 0.12 µg/mL and 0.06 µg/mL
- FIC [9, 12]: 0.078 and 0.040
- MIC of compound in combination [9, 10]: 1 µg/mL
- FIC [9, 13]: 0.531

Structure (SMILES): C=CCN(C)Cc1ccc(-c2ccc(C(=O)c3ccc(Br)cc3)cc2)cc1 [Compound 20, 4'-[[(Allylmethylamino)methyl]-4-biphenylylp-bromophenyl ketone hydrochloride]
- MIC [1]: 1 µg/mL
- MIC of compound in combination [1, 14]: 0.12 µg/mL
- FIC [1, 15]: 0.156
- MIC of compound in combination [1, 10]: 0.12 µg/mL
- FIC [1, 13]: 0.375
- MIC [2]: 1 µg/mL
- MIC of compound in combination [2, 14]: 0.25 µg/mL
- FIC [2, 15]: 0.25
- MIC of compound in combination [2, 10]: 0.25 µg/mL
- FIC [2, 13]: 0.5
- MIC [4]: 2 µg/mL
- FIC [4, 12]: 0.156 and 0.078
- MIC of compound in combination [4, 10]: 0.25 µg/mL
- FIC [4, 13]: 0.25
- MIC [5]: 1 µg/mL
- MIC of compound in combination [5, 14]: 0.25 µg/mL
- FIC [5, 14]: 0.375
- MIC of compound in combination [5, 10]: 0.25 µg/mL
- FIC [5, 10]: 0.50
- IC50 ([7]; cell-free extract, pH 6.9, 30° C., 1 hour, read-out: IC50 (converted)): 0.0309 µM
- synergistic activity [8]: confirm the synergistic activity
- MIC [9]: 2 µg/mL
- MIC of compound in combination [9, 14]: 0.12 µg/mL
- FIC [9, 15]: 0.093
- MIC of compound in combination [9, 10]: 0.50 µg/mL
- FIC [9, 13]: 0.266
